Values joined by “and” are separate entries in the source; they are usually repeats but may differ in a detail not shown here. Equal values may be shown once. Read-outs that look alike come from different tables or passages of the source.
Tests used:
[1] = system: cap-dependent translation (FF cistron of FF-HCV-Ren); experiment: In vitro translation assay, bicistronic FF-HCV-Ren mRNA reporter in Krebs-2 extracts; format: biochemical
Excerpt: Given these observations, the inventors next sought to interrogate the effects of compound (−)-20 in secondary assays for both eIF4A and DDX3 engagement. […] While inherent differences between the FP assay conditions (e.g. probe affinity, protein mobility in FP buffer) preclude direct comparison of absolute AmP values across the two different proteins, the inventors noted that relative anti-CSC potencies for these compounds ((−)-7>(−)-5≈(−)-20) were similar to their relative degrees of clamping for DDX3X and eIF4A1. To follow up on these findings, the inventors performed in vitro translation experiments using a bicistronic mRNA reporter construct FF-HCV-Ren, where translation of the firefly luciferase (FF) cistron is cap-dependent, while translation of the Renilla luciferase (HCV-Ren) cistron is driven off an HCV-IRES, rendering translation of this cistron cap-independent.
In vitro translation assays: In vitro translations were performed using 4 ng/μL of bicistronic FF-HCV-Ren/pA51 reporter mRNA and the indicated compound concentrations in Krebs-2 extracts at 30° C. for 1 h as described previously.^S10 Cap-dependent FLuc and cap-independent RLuc activities were assessed on a Berthold Lumat LB 9507 luminometer (Berthold Technologies). Curves were determined using a non-linear regression model on GraphPad Prism 8.4.0.

[2] = target: T1, DDX3X (Homo sapiens, UniProt O00571); experiment: PISA assay in GBM0308 cell lysates, DDX3X; format: binding; conditions: GBM0308 lysate, compound 10 μM, AMP-PNP and (AG)8 RNA added
T1 construct: endogenous in cells; host or cells: GBM0308 glioblastoma stem cells (lysate)
T1 sequence (O00571 whole entry): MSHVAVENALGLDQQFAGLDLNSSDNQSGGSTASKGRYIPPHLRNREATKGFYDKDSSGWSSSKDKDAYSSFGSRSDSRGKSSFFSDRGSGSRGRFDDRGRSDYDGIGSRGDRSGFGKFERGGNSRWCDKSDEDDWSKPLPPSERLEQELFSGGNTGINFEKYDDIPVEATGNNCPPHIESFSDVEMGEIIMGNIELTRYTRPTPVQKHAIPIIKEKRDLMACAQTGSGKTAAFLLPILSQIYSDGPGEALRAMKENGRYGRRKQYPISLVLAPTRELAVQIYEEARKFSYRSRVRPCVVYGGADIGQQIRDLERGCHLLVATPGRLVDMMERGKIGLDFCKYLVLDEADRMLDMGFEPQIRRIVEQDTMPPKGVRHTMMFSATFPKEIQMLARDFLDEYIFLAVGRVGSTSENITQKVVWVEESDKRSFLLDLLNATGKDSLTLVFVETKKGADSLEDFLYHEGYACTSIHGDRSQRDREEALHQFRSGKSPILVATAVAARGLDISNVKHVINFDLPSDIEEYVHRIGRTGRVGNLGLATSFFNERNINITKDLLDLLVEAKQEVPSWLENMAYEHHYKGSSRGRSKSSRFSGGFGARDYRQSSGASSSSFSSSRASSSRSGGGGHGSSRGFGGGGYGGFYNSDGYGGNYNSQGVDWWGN
Excerpt: Derivatization-free target identification using a modified proteome integral solubility alteration (PISA) assay. The inventors next pursued proteome-wide target identification to better understand the target profiles of CSC-selective rocaglates. To enable cross-compound comparisons of target engagement, the inventors opted to use the Proteome Integral Solubility Alteration (PISA) assay,^29 a derivative of the mass spectrometry-based Cellular Thermal Shift Assay (MS-CETSA). In MS-CETSA,^30,31 target engagement is inferred through proteome-wide analysis of compound-induced changes to protein thermal stability; proteins with a shift in their half-maximal thermal denaturation temperature upon compound treatment are flagged as potential targets. The PISA assay obviates the need for MS-CETSA-derived thermal denaturation curves through curve integration by pooling of individual temperature points into a single “integral” sample for each treatment condition, thereby increasing throughput (FIG. 9). In contrast to MS-CETSA (which relies on curve comparisons), PISA determinations are performed by simply comparing soluble protein abundance levels between compound- and DMSO-treated samples. Importantly, protein fold-change measurements in PISA experiments generally scale with the thermal shift derived from CETSA experiments, and the magnitude of a thermal shift can inform on relative affinity between compounds and individual targets.^30,32-25 Maximal stability changes are protein-specific,^36 however, precluding estimations of preference for one target over another. Thus, PISA allows for simultaneous target profiling and comparisons of binding affinity between different compounds within a given target.
Of note, we also detected stabilization of DDX3Y, a paralog which shares >90% sequence similarity with DDX3X.
PISA assay in GBM0308 cell lysates: The PISA assay was performed in lysates as described by Gaetani and coworkers^S2 with slight modification. […] Lysate concentration was determined using a Pierce BCA Protein Assay Kit and adjusted to 2.0 mg/mL in lysis buffer. […]

[3] = system: GBM0308 neurospheres; experiment: Caspase 3/7 staining of neurospheres; format: cell-based, human; conditions: 1 μM, 24- and 48-hour timepoints
Experimental: (§1) To gain additional mechanistic insights into GBM cell death induced by (−)-20, the inventors conducted several functional assays. The inventors first derived a single neurosphere from GBM0308 cells cultured in stem cell conditions, which was treated with either DMSO or (−)-20 at varying doses for three days followed by staining with PI and Hoechst dyes and subsequent imaging. […] To capture the kinetics of apoptotic events, the inventors employed caspase 3/7 staining of GBM0308 neurospheres treated with either DMSO or (−)-20 and subsequently evaluated at three timepoints over a 48-hour period. […] (FIG. 5B).
(§2) Apoptosis Assays: For the Caspase 3/7 assay single neurospheres were generated as described above. On day four, neurospheres were treated with compound (−)-20. Apoptosis in treated tumorspheres was assessed using Nexcelom's ViaStain™ Live Caspase 3/7 Detection kit (Nexcelcom, CS1-V0002-1). […] Plates were imaged using the “neurosphere 1+Mask” application to measure fluorescent intensities of the caspase dye, as described previously.^70 Apoptosis was quantified using the FITC Annexin V apoptosis detection kit II (Invitrogen). […] At 12 h and 24 h after treatment, neurospheres were gently dissociated by using trypsin 0.025%, stained with PI and FITC and analyzed by flow cytometery using a Bio-Rad ZE5 Cell Analyzer.

[4] = system: GBM0308 cells (CSCs); experiment: Annexin V/PI flow cytometry apoptosis assay; format: cell-based, human; conditions: 1 μM, 12 h and 24 h
Experimental: as §1, §2

[5] = FF cistron, Krebs-2 extracts, 30° C., 1 h, read-out: cap-dependent translation inhibition EC50

SMILES	EC50 [1, 5]	thermal stabilization of DDX3X (PISA), in words [2]	EC50 ([1]; approximate value, read-out: translation inhibition EC50) [nM]	caspase 3/7 staining [3]	Annexin V/PI staining (apoptosis) [4]
CONC(=O)[C@H]1[C@@H](O)[C@@]2(O)c3c(OC)cc(OC)cc3O[C@@]2(c2ccc(OC)cc2)[C@@H]1c1ccccc1 [(−)-5, CR-1-31b, reference compound]	215 nM and ~200 nM	–	–	–	–
CONC(=O)[C@H]1[C@@H](O)[C@@]2(O)c3c(OC)cc(OC)cc3O[C@@]2(c2ccc(Br)cc2)[C@@H]1c1ccccc1 [(−)-7, SDS-1-021]	–	stabilized	–	–	–
COc1cc(OC)c2c(c1)O[C@@]1(c3ccc(Br)cc3)[C@H](c3ccccc3)[C@@H](C(=O)NS(=O)(=O)N(C)C)[C@@H](O)[C@@]21O [(−)-20, (1R,2R,3S,3aR,8bS)-3a-(4-bromophenyl)-N—(N,N-dimethylsulfamoyl)-1,8b-dihydroxy-6,8-dimethoxy-3-phenyl-2,3,3a,8b-tetrahydro-1H-cyclopenta[b]benzofuran-2-carboxamide]	937 nM	stabilized	~1000	positive staining	induced apoptosis

From patent publication US12612395B2, “Rocaglate derivatives and uses thereof” (TRUSTEES OF BOSTON UNIVERSITY, priority 2023, dated 2026)
